Assay results published in US11154210B2, “Method of determining vasoreactivity using inhaled nitric oxide” (VERO BIOTECH LLC, priority 2011, dated 2021).
Several values for one entry are separate records, joined by “and”; a condition that tells them apart may be missing. Equal values may be shown once.

How the values were obtained:
[1] = tested on: patients with pulmonary arterial hypertension; experiment: Inhaled nitric oxide vasodilator challenge during right heart catheterization, retrospective review of prostacyclin wean/transition cases; format: in vivo, human
From the text: Inhaled nitric oxide (NO) can be administered during right heart catheterization (RHC) to evaluate and characterize pulmonary hemodynamics following long term parenteral prostacyclin therapy and can provide information that may influence the choice of treatment strategies for these patients. These treatment strategies may involve changing vasodilator therapy, eligibility for lung and/or heart transplantation, or changes in prognosis. Inhaled nitric oxide can be a potent, selective pulmonary vasodilator agent and has been well studied up to 80 ppm. It is expected that inhaled nitric oxide as a diagnostic agent during RHC may be useful for facilitating patient management strategies and provide clinical information beneficial to patient care.
An aim of the project was to collect and review the existing data from centers experienced with the practice of transition from parenteral prostacyclins to an alternative therapy. The review was conducted to determine if a population could be characterized based on the hemodynamic response using inhaled nitric oxide during right heart catheterization. A primary objective of the project was to determine the correlation, if any, between the return of pulmonary vascular reactivity following parenteral prostacyclin therapy and the ability of the patient to transition from parenteral prostacyclins to an alternative therapy. Secondary objectives included the exploration of clinical characteristics of a patient population with a documented wean or transition from parenteral prostacyclins, as well as evaluating any change in clinical impression.
To date seven sites have contributed to the data set collected for a total of 47 baseline visits, and 246 follow-up visits. There are five failed weans and seven late failures. Data was available to review for 40 cases entered. No statistical analysis was performed and reviews completed were descriptive in order to identify any shared characteristics in the population either as a success, failure or late failure.
Three cases, where nitric oxide re-challenge data was available at the time of subject wean, are represented in Table 2.
The lack of correlation between the clinical findings and the ECHO data prompted review of the data. Baseline hemodynamics, wean hemodynamics and echocardiography data were reviewed for all the failed transitions. […] In each case, where echocardiography data was available and right ventricular enlargement was indicated and/or right ventricular dysfunction was indicated, a failed wean or late failure was common.

[2] = tested on: patients with pulmonary arterial hypertension; details: epoprostenol therapy, 27 consecutive patients; cited from earlier work
[3] = tested on: patients with pulmonary arterial hypertension; details: active group (n=41), 12 weeks; cited from earlier work
[4] = failed wean/late failure cases, Time of Wean

SMILES	acute vasodilator response (fall in PAPm of >10 mm Hg to <40 mm Hg) ([1]; all three cases of Table 2)	change in PAPm ([1]; all three cases of Table 2, nitric oxide challenge at time of wean)	NO CO ([1]; cardiac output on nitric oxide challenge at time of wean, one patient case per table row)	change in CO ([1]; case of the failed transition)	change in PVR ([1]; case of the failed transition)	WN NO CO [1, 4]	WN NO PAPm [1, 4]	WN NO PVR [1, 4]	NO PAPm ([1]; mean pulmonary arterial pressure on nitric oxide challenge at time of wean, one patient case per table row)	NO PVR ([1]; pulmonary vascular resistance on nitric oxide challenge at time of wean, one patient case per table row)	cardiac output increased [2]	mean pulmonary artery pressure declined [2]	pulmonary vascular resistance declined [2]	average decline in mean pulmonary arterial pressure [3]	decline in pulmonary vascular resistance [3]
[N]=O [NO, nitric oxide]	failed to meet the criteria	only a modest decrease	5.2 and 7.8 and 4.77	marked increase	minimal decrease	5.2	49	8.3	49 and 48 and 70	8.3 and 3.8 and 14.4					
CCCCC[C@H](O)/C=C/[C@@H]1[C@H]2C/C(=C/CCCC(=O)O)O[C@H]2C[C@H]1O [epoprostenol]											67%	22%	53%	8%	21%
